Measurements: ChEMBL document CHEMBL5108012, “Discovery of 2,5-diphenyl-1,3,4-thiadiazole derivatives as HDAC inhibitors with DNA binding affinity” (Eur J Med Chem, 2022)
The source made the active and inactive calls. No cut-off for these calls is given here.

Legend:
[1] = target: T1, Histone deacetylase (Homo sapiens) (UniProt Q13547+O15379+Q9UBN7+Q92769+Q9UQL6+Q8WUI4+Q9BY41+Q96DB2+P56524+Q9UKV0+Q969S8); assay: Inhibition of HDAC in human HCT-116 cells assessed as increase in acetylated alpha-tubulin expression expression at 0.17 to 1.5 uM incubated for 48 hrs by Western blot analysis; assay type: cell-based; conditions: dose 0.17-1.5 µM
MC-38 [2] = assay: Antitumor activity against mouse MC38 cells xenografted in C57BL/6 mouse assessed as tumor growth inhibition at 50 mg/kg, ip administered every 2 days for 16 consecutive days; assay type: functional; conditions: MC-38, 384 h, time 16 day, read-out: TGI
Histone deacetylase 8 = target: T2, Histone deacetylase 8 (Homo sapiens, UniProt Q9BY41); assay: Inhibition of HDAC8 in human HeLa cell nuclear extract using Boc-Lys(Ac)-AMC or Boc-Lys(triflouroacetyl)-AMC as substrate incubated for 30 mins and measured by fluorescence assay; assay type: cell-free
T2 sequence (Q9BY41 whole entry): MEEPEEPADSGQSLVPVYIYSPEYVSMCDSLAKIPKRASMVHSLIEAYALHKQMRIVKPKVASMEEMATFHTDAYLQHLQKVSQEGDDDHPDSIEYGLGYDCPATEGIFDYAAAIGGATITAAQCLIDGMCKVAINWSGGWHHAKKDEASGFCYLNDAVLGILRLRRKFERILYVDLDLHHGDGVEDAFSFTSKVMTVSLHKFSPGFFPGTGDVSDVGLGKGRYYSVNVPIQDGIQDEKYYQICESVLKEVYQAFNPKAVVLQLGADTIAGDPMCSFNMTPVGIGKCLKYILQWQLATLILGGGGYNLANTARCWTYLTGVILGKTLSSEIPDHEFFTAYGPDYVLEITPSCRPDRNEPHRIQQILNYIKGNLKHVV

[3] = target: Histone deacetylase (HDAC1 and HDAC2) (Homo sapiens, UniProt Q13547+Q92769); assay: Inhibition of HDAC1/HDAC2 in human HeLa cell nuclear extract using Boc-Lys(Ac)-AMC as substrate and measured by fluorometric method; assay type: cell-based
MC-38 [4] = assay: Antitumor activity against mouse MC38 cells xenografted in C57BL/6 mouse assessed as induction of apoptosis in tumor at 50 to 100 mg/kg, ip administered every 2 days for 16 consecutive days measured by TUNEL staining based assay; assay type: functional, organism-based; conditions: dose 50-100 mg/kg, time 16.0 day
MC-38 [5] = assay: Antiproliferative activity against mouse MC38 cells after 48 hrs by CCK-8 assay; assay type: functional, cell-based; conditions: MC-38, 48 h
HCT-116 [6] = assay: Induction of apoptosis in human HCT-116 cells assessed as late apoptotic cells at 1.5 uM incubated for 48 hrs by PI and annexin V-FITC staining based flow cytometry (reference value: 3.4%); assay type: functional
HCT-116 [7] = assay: Antiproliferative activity against human HCT-116 cells after 48 hrs by CCK-8 assay; assay type: functional, cell-based; conditions: HCT-116, 48 h
MC38 [8] = assay: Inhibition of HDAC in mouse MC-38 cells assessed as increase in acetylated alpha-tubulin expression expression at 0.17 to 1.5 uM incubated for 48 hrs by Western blot analysis; assay type: cell-based; conditions: dose 0.17-1.5 µM
MC-38 [9] = assay: Antitumor activity against mouse MC38 cells xenografted in C57BL/6 mouse assessed as decrease in tumor volume at 50 to 100 mg/kg, ip administered every 2 days for 16 consecutive days; assay type: functional, organism-based; conditions: dose 50-100 mg/kg, time 16.0 day
HCT-116 [10] = assay: Induction of apoptosis in human HCT-116 cells assessed as increase in cleaved caspase-3 expression at 0.17 to 1.5 uM incubated for 48 hrs by Western blot analysis; assay type: functional, cell-based; conditions: dose 0.17-1.5 µM
DNA = assay: Binding affinity to pBR322 DNA (unknown origin) at 10 to 50 uM after 30 mins by Agarose gel electrophoresis; assay type: nucleic-acid assay; conditions: dose 10-50 µM
MC-38 [11] = assay: Antitumor activity against mouse MC38 cells xenografted in C57BL/6 mouse assessed as necrosis in tumor at 50 to 100 mg/kg, ip administered every 2 days for 16 consecutive days measured by H and E staining method; assay type: functional, organism-based; conditions: dose 50-100 mg/kg, time 16.0 day
HEL = assay: Antiproliferative activity against human HEL cells after 48 hrs by CCK-8 assay; assay type: functional, cell-based
MOLT-4 = assay: Antiproliferative activity against human MOLT-4 cells after 48 hrs by CCK-8 assay; assay type: functional, cell-based; conditions: MOLT-4, 48 h
HeLa = assay: Antiproliferative activity against human HeLa cells after 48 hrs by CCK-8 assay; assay type: functional, cell-based
MC38 [12] = assay: Inhibition of HDAC in mouse MC-38 cells assessed as increase in acetylated HH3 expression expression at 0.17 to 1.5 uM incubated for 48 hrs by Western blot analysis; assay type: cell-based; conditions: dose 0.17-1.5 µM
HCT-116 [13] = assay: Downregulation of SPT16 expression in human HCT-116 cells at 0.17 to 1.5 uM measured after 24 hrs by Western blot analysis; assay type: functional, cell-based; conditions: dose 0.17-1.5 µM
K562 = assay: Antiproliferative activity against human K562 cells after 48 hrs by CCK-8 assay; assay type: functional, cell-based; conditions: K562, 48 h
MC-38 [14] = assay: Antitumor activity against mouse MC38 cells xenografted in C57BL/6 mouse assessed as tumor growth inhibition at 100 mg/kg, ip administered every 2 days for 16 consecutive days; assay type: functional; conditions: MC-38, 384 h, time 16 day, read-out: TGI
MC-38 [15] = assay: Antitumor activity against mouse MC38 cells xenografted in C57BL/6 mouse assessed as decrease in Ac-HH3 expression in tumor at 50 to 100 mg/kg, ip administered every 2 days for 16 consecutive days measured by immunohistochemistry analysis; assay type: functional, organism-based; conditions: dose 50-100 mg/kg, time 16.0 day
HepG2 = assay: Antiproliferative activity against human HepG2 cells after 48 hrs by CCK-8 assay; assay type: functional, cell-based; conditions: HepG2, 48 h
Calf thymus DNA [16] = assay: Binding affinity to calf thymus DNA at 50 uM incubated for 30 mins and measured by fluorescence spectroscopy; assay type: nucleic-acid assay; conditions: Bos taurus
[17] = target: T1, Histone deacetylase (Homo sapiens); assay: Inhibition of HDAC in human HCT-116 cells assessed as increase in acetylated HH3 expression expression at 0.17 to 1.5 uM incubated for 48 hrs by Western blot analysis; assay type: cell-based; conditions: dose 0.17-1.5 µM
MC-38 [18] = assay: Antitumor activity against mouse MC38 cells xenografted in C57BL/6 mouse assessed as decrease in tumor weight at 50 to 100 mg/kg, ip administered every 2 days for 16 consecutive days; assay type: functional, organism-based; conditions: dose 50-100 mg/kg, time 16.0 day
HCT-116 [19] = assay: Downregulation of SSRP-1 expression in human HCT-116 cells at 0.17 to 1.5 uM measured after 24 hrs by Western blot analysis; assay type: functional, cell-based; conditions: dose 0.17-1.5 µM
Calf thymus DNA [20] = assay: Binding affinity to calf thymus DNA at 50 uM incubated for 30 mins and measured by UV-vis absorption spectroscopy; assay type: nucleic-acid assay; conditions: Bos taurus
HCT-116 [21] = assay: Induction of apoptosis in human HCT-116 cells assessed as early apoptotic cells at 1.5 uM incubated for 48 hrs by PI and annexin V-FITC staining based flow cytometry (reference value: 3.4%); assay type: functional

O=C(CCCCCOc1cccc(-c2nnc(-c3ccccc3)s2)c1)NO
inhibition [1]: Active
inhibition in vivo at 50 mg/kg (MC-38 [2]): 66%
IC50 (Histone deacetylase 8): 3.03 µM
IC50 [3]: 0.038 µM
Activity (MC-38 [4]): Active
IC50 (MC-38 [5]): 0.43 µM
Activity (HCT-116 [6]): 38.5%
IC50 (HCT-116 [7]): 0.47 µM
inhibition (MC38 [8]): Active
Activity (MC-38 [9]): Active
Activity (HCT-116 [10]): Active
Activity (DNA): Active
Activity (MC-38 [11]): Active
IC50 (HEL): 0.28 µM
IC50 (MOLT-4): 0.15 µM
IC50 (HeLa): 0.78 µM
inhibition (MC38 [12]): Active
Activity (HCT-116 [13]): Active
IC50 (K562): 0.91 µM
inhibition in vivo at 100 mg/kg (MC-38 [14]): 85.2%
Activity (MC-38 [15]): Active
IC50 (HepG2): 1.4 µM
Activity (Calf thymus DNA [16]): Active
inhibition [17]: Active
Activity (MC-38 [18]): Active
Activity (HCT-116 [19]): Active
Activity (Calf thymus DNA [20]): Active
Activity (HCT-116 [21]): 38.5%
